Assay results taken from a melting point compilation (Tetko et al.).

| SMILES | melting point [°C] |
| --- | --- |
| CC12CCC3C(CCC4CC5(CCC43C)OCCO5)C1CCC2O (stereo not drawn) | 212 |
| Cc1nn(C)c(C)c1I | 72 to 74 |
| Cc1cc(O)cc(O)c1C | 136 |
| O=S(=O)(Cl)c1ccccc1Cl | 27 |
| O=S(=O)(O)CC(O)CN(CCO)CCO (stereo not drawn) | 189 to 192 |
| O=C1CCCN1C1CCCCC1 | 13 |
| Cc1nn(C)c(Oc2ccccc2)c1C=NOCc1ccc(C(=O)OC(C)(C)C)cc1 | 102 |
| CC(C)(C)OC(=O)N1OC1c1ccc(C#N)cc1 (stereo not drawn) | 57 to 63 |
| O=C(NCSCc1ccccc1)c1ccccc1 | 79 to 80 |
| CCCS(=O)(=O)O | 8 |
| CCCCCCCC(=O)OCC(COC(=O)CCCCCCC)OC(=O)CCCCCCC | 10 |
| CC(C)(C)OC(=O)N1CCC(c2nc(CO)cs2)CC1 | 97 to 101 |
| Cc1cc(C)c(N)c(C)c1N | 90 |
| CC(C)(C(=O)N1C(=O)C=CC1(C)C)C(=O)N1C(=O)C=CC1(C)C | 128 |
| Cc1cc(C2(c3cc(C)c(O)c(CN(CC(=O)O)CC(=O)O)c3)OC(=O)c3ccccc32)cc(CN(CC(=O)O)CC(=O)O)c1O | 181 |
| NNC(=O)COc1ccc(OC(F)(F)F)cc1 | 130 to 133 |
| CC(C)(C)OC(=O)NC(Cc1ccncc1)C(=O)O (stereo not drawn) | 225 to 229 |
| O=[N+]([O-])c1cccc2cccc(Cl)c12 | 95.8 |
| O=C(c1ccccc1)c1ccc(Cl)c(Cl)c1 | 102 |
| O=C(CCl)Oc1ccc([N+](=O)[O-])cc1 | 73 to 75 |
| CC(CCc1ccc(CCC(C)OC(=O)Nc2ccccc2)cc1)OC(=O)Nc1ccccc1 (stereo not drawn) | 165 |
| S=c1sccs1 | 49 |
| CN1CCN(CCCN2c3ccccc3Sc3ccc(Cl)cc32)CC1 | 228 |
| CCOC(=O)c1sc(-c2ccc(N)cc2)nc1C | 128 |
| CC(=O)OC1CC[C@H]2[C@@H]3CCC4CC(=O)CC[C@]4(C)[C@H]3CC[C@]12C (stereo partly drawn) | 146 |
| O=C(O)c1ccc2c(c1)CCCC2 | 156 |
| CCN(O)CC | 10 |

| SMILES | melting point [°C] |
| --- | --- |
| O=C(O)c1ccc(O)c(C(=O)O)c1 | 310 |
| Cc1c[nH]c(C)n1 | 92 |
| ClCc1ccc(Cl)c(Cl)c1 | 37.5 |
| O=C(O)CNc1ccccc1 | 128 |
| NC(CCC(=O)NC(CS)C(=O)NCC(=O)O)C(=O)O (stereo not drawn) | 195 |
| O=C(c1ccc2c3c(cccc13)CC2)C(O)c1ccccc1 (stereo not drawn) | 138 |
| COc1ccc(-c2ccc(OC)cc2)cc1 | 177 to 181 |
| COc1cc2c(c(O)c1OC)C(C)NCC2 (stereo not drawn) | 160 |
| C=CC(=O)OCCCCO | -112 |
| O=C(CCl)Nc1ccc(Br)cc1 | 136 to 137 |
| COC(C)=O | -98 |
| Cc1cccc2c1Cc1ccccc1-2 | 85 |
| NC(=S)c1cccc(I)c1 | 120 to 124 |
| CCCCCCCCCCCCCCCC1CCCCC1 | 29 |
| CN(C)C1(C#N)CCOCC1 | 51 to 52 |
| O=C(c1cccc2ccccc12)C(O)c1ccccc1 (stereo not drawn) | 105 to 106 |
| COc1ccc(SC)cc1 | 22 to 23 |
| Cc1ccc(-c2ccc(C=CC(=O)c3ccccc3)o2)cc1 | 100 to 101 |
| NNC(=O)C(O)(c1ccccc1)c1ccccc1 | 168 to 169 |
| CCN(CC)C(=S)Cl | 45 to 50 |
| COc1cc(OC)cc(C(=O)Cl)c1 | 43 |
| CC1(C)C=C(C(=O)O)C(C)(C)N1O | 202 |
| COC(=O)c1cc2ccccc2c(OC(=O)c2ccccc2C)c1C(=O)OC | 138 to 140 |
| COC(=O)[C@H]1C[C@H](NC(=O)OC(C)(C)C)[C@@H](O)C1 | 71.2 |
| CCOc1ccc(CCO)cc1 | 42 |
| CCOC(=O)Cc1ccc(O)cc1 | 39 to 40 |
